The values below come from patent US11738008B2, “N-methyl-D-aspartic acid receptor modulators” (Emory University, priority 2018, dated 2023).

Like-named read-outs stand apart in the source and are kept apart here. A value given as a limit tells only on which side of the number the result lay.

Assay [1] addresses T1, D2 (Homo sapiens, UniProt P14416).
T1 construct: NIMH PDSP (assay provider)
The assay can be described thus: NIMH PDSP radioligand binding, D2. Particulars: read-out: Radioligand binding in 10 μM compound (% control). The procedure:
(§1) The NIMH PDSP is Directed by Bryan L. Roth at the University of North Carolina at Chapel Hill and Project Officer Jamie Driscoll at NIMH, Bethesda Md., USA. Radioligand binding was measured in the presence of 10 μM 1180-420 and 1180-447. […] For experimental details please refer to the PDSP web site https://pdsp.unc.edu/ims/investigator/web/. Both 1180-420 and 1180-447 were also tested at AMPA, nicotinic acetylcholine, serotonin, GABA, and glycine ion channels using a two-electrode voltage clamp assay.
(§2) Receptor binding profiles of compound 1180-447 were generously provided by the National Institute of Mental Health's Psychoactive Drug Screening Program, Contract # HHSN-271-2013-00017-C(NIMH PDSP). The NIMH PDSP is directed by Bryan L. Roth at the University of North Carolina at Chapel Hill and Project Officer Jamie Driscoll at NIMH, Bethesda Md., USA. Radioligand binding was measured in the presence of 10 μM 1180-447. […] For experimental details please refer to the PDSP web site https://pdsp.unc.edu/ims/investigator/web/.
(§3) The NIMH PDSP is Directed by Bryan L. Roth at the University of North Carolina at Chapel Hill and Project Officer Jamie Driscoll at NIMH, Bethesda Md., USA. Radioligand binding was measured in the presence of 10 μM 1180-420. […] For experimental details please refer to the PDSP web site https://pdsp.unc.edu/ims/investigator/web/.

Assay [2] has as its target T2, 5-HT3 (Homo sapiens, UniProt P46098).
T2 construct: NIMH PDSP (assay provider)
The assay can be described thus: NIMH PDSP radioligand binding, 5-HT3. To be noted: read-out: Radioligand binding in 10 μM compound (% control). The procedure: as §1, §2, §3

Assay [3] addresses M2 (Homo sapiens, UniProt P08172). Kind of assay: NIMH PDSP radioligand binding, M2. Particulars: read-out: Radioligand binding in 10 μM compound (% control). The procedure:
as §1, §2, §3

In assay [4] the target is T3, α1β2γ2-GABAA (Homo sapiens, UniProt P14867+P18507+P47870).
T3 construct: expressed in transfected cells
The assay can be described thus: Off-target two-electrode voltage clamp assay, α1β2γ2-GABAA. To be noted: 10 μM, mean ± SEM. The assay is classed as cell-based. The procedure:
as §1
In general terms: Two-electrode voltage clamp holds a large cell at a set potential and records current.

The target in assay [5] is μ-opioid receptor (Homo sapiens, UniProt P35372). The assay can be described thus: NIMH PDSP radioligand binding, μ-opioid receptor. Particulars: read-out: Radioligand binding in 10 μM compound (% control). The procedure:
as §1, §2, §3

The target in assay [6] is rat GluN1/GluN2C (Rattus norvegicus, UniProt P35439+Q00961). Kind of assay: Two-electrode voltage clamp recordings in Xenopus laevis oocytes, potentiation of GluN1/GluN2C. The assay is classed as cell-based. The procedure: (§4) Xenopus laevis oocytes were purchased unfertilized from Ecocyte (Austin, Tex.). The oocytes were injected with mRNA to express recombinant rat GluN1/GluN2A, GluN1/GluN2B, GluN1/GluN2C, and GluN1/GluN2D and two-electrode voltage clamp (TEVC) recordings were performed. Drs. S. Heinemann (Salk Institute), S. Nakanishi (Kyoto University), and P. Seeburg (University of Heidelberg) provided the cDNAs for rat GluN1-1a (GenBank accession numbers U11418 and U08261, referred to as GluN1 henceforth), GluN2A (D13211), GluN2B (U11419), GluN2C (M91563), and GluN2D (D13213). GluN2C and GluN2D were altered according to literature precedent. […] To prevent the current increase typically seen during experiments with oocytes expressing GluN1/GluN2A receptors, the oocytes were either injected with 20 nL of 100 mM K-BAPTA (potassium 1,2-bis(o-aminophenoxy)ethane-N,N,N,N-tetraacetic acid) or pretreated with 50 μM BAPTA-AM (1,2-bis(o-aminophenoxy)ethane-N,N,N,N-tetraacetic acid tetraacetoxymethyl ester) for 10 minutes.
Chain of rat GluN1/GluN2C (Rattus norvegicus, UniProt P35439+Q00961) (Q00961 20-1237, other chains not shown): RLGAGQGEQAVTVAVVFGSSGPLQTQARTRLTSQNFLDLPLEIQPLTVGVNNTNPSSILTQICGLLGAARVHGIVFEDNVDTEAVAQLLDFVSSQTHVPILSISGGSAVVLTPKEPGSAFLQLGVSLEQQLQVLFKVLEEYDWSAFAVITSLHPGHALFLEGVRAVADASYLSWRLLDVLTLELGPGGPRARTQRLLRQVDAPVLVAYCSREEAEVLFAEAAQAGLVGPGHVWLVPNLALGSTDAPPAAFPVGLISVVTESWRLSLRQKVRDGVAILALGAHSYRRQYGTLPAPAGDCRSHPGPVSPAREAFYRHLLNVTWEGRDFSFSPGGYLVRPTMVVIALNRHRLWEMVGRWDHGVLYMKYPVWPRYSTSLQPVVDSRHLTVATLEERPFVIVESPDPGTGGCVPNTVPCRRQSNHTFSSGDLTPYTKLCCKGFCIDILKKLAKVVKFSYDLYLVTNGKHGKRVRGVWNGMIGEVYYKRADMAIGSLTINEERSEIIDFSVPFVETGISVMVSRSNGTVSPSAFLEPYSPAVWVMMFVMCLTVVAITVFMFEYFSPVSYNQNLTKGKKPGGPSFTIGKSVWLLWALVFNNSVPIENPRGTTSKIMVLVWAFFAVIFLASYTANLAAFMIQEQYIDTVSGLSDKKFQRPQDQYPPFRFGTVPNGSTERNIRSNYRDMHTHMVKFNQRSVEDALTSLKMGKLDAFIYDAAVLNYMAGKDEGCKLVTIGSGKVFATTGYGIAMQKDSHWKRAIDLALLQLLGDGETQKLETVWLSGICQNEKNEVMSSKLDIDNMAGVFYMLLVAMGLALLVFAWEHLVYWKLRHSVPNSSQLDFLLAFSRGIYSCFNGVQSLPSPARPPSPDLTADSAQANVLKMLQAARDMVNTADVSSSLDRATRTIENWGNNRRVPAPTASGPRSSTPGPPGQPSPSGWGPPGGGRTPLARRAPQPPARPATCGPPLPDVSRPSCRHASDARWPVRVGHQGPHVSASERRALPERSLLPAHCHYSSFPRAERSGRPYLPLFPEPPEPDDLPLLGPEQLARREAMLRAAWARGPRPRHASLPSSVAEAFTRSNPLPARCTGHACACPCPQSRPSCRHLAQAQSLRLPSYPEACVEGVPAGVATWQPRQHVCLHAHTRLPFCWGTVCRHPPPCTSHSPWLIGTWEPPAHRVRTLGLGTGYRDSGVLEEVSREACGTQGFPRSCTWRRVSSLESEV

The target in assay [7] is rat GluN1/GluN2C (Rattus norvegicus, UniProt Q00961). Described as above. The format is cell-based. The procedure: as §4
Chain of rat GluN1/GluN2C (Rattus norvegicus, UniProt Q00961) (Q00961 20-1237, other chains not shown): as above
Assay [8] has as its target T4, α4β2-nACh (Homo sapiens, UniProt P17787+P43681).
T4 construct: expressed in transfected cells
The assay can be described thus: Off-target two-electrode voltage clamp assay, α4β2-nACh. The assay is classed as cell-based. Particulars: 10 μM, mean ± SEM. The procedure:
as §1

For assay [9], the target named is T5, 5-HT1D (Homo sapiens, UniProt P28221).
T5 construct: NIMH PDSP (assay provider)
T5 sequence (P28221 whole entry, species assumed): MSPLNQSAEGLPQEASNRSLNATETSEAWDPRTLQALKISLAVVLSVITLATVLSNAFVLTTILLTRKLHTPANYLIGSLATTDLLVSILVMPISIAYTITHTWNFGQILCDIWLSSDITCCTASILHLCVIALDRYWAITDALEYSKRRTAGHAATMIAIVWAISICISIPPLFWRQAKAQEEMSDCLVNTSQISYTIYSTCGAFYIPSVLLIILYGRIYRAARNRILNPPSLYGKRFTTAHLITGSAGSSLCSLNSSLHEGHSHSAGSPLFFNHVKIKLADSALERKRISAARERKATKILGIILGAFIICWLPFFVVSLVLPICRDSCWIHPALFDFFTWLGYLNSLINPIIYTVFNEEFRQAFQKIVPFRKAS
The assay can be described thus: NIMH PDSP radioligand binding, 5-HT1D. To be noted: read-out: Radioligand binding in 10 μM compound (% control). The procedure: as §1, §2, §3

Assay [10] deals with norepinephrine transporter (Homo sapiens, UniProt P23975). Kind of assay: NIMH PDSP radioligand binding, norepinephrine transporter. Particulars: read-out: Radioligand binding in 10 μM compound (% control). The procedure:
as §1, §2, §3

Assay [11] addresses T6, GluA1 (Homo sapiens, UniProt P42261).
T6 construct: expressed in transfected cells
The assay can be described thus: Off-target two-electrode voltage clamp assay, GluA1. The format is cell-based. To be noted: 10 μM, mean ± SEM. The procedure: as §1

For assay [12], the target named is α2B (Homo sapiens, UniProt P18089). The assay can be described thus: NIMH PDSP radioligand binding, α2B. Particulars: read-out: Radioligand binding in 10 μM compound (% control). The procedure: as §1, §2, §3
Chain of α2B (P18089 whole entry): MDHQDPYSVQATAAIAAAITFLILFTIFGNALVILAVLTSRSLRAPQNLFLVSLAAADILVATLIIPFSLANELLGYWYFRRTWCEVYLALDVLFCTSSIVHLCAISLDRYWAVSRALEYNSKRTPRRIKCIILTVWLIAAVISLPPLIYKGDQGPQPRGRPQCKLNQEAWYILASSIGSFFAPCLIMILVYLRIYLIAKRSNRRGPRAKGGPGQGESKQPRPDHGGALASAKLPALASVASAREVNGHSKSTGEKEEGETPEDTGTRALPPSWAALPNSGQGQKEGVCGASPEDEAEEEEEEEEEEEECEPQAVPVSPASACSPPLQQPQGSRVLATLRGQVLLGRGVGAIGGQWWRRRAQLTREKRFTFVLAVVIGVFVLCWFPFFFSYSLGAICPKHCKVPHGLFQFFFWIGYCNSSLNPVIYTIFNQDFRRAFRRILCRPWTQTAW
Assay [13] concerns GABAA. Kind of assay: NIMH PDSP radioligand binding, GABAA. The procedure:
as §1, §2, §3

For assay [14], the target named is α2C (Homo sapiens, UniProt P18825). Kind of assay: NIMH PDSP radioligand binding, α2C. To be noted: read-out: Radioligand binding in 10 μM compound (% control). The procedure:
as §1, §2, §3

Assay [15] has as its target T7, 5-HT2C (Homo sapiens, UniProt P28335).
T7 construct: NIMH PDSP (assay provider)
T7 sequence (P28335 33-458): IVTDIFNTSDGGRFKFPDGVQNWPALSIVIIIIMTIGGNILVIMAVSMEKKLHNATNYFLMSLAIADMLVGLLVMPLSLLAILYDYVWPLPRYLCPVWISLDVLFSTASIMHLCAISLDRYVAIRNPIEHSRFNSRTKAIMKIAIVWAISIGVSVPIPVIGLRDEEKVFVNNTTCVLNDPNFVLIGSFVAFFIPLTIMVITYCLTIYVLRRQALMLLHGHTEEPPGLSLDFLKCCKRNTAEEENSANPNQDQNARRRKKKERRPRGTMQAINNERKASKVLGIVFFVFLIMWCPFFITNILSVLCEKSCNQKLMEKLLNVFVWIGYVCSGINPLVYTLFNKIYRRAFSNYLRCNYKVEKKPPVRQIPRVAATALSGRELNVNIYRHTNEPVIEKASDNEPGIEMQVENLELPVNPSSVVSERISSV
The assay can be described thus: NIMH PDSP radioligand binding, 5-HT2C. To be noted: for remaining activity at 10 µM: read-out: Radioligand binding in 10 μM compound (% control). The procedure:
as §1, §2, §3

Assay [16] concerns the target rat GluN1/GluN2D (Rattus norvegicus, UniProt P35439+Q62645). Kind of assay: Two-electrode voltage clamp recordings in Xenopus laevis oocytes, potentiation of GluN1/GluN2D. The assay is classed as cell-based. The procedure:
as §4

For assay [17], the target named is rat GluN1/GluN2D (Rattus norvegicus, UniProt Q62645). The assay is described as above. The assay is classed as cell-based. The procedure: as §4
Chain of rat GluN1/GluN2D (Rattus norvegicus, UniProt Q62645) (Q62645 28-1323, other chains not shown): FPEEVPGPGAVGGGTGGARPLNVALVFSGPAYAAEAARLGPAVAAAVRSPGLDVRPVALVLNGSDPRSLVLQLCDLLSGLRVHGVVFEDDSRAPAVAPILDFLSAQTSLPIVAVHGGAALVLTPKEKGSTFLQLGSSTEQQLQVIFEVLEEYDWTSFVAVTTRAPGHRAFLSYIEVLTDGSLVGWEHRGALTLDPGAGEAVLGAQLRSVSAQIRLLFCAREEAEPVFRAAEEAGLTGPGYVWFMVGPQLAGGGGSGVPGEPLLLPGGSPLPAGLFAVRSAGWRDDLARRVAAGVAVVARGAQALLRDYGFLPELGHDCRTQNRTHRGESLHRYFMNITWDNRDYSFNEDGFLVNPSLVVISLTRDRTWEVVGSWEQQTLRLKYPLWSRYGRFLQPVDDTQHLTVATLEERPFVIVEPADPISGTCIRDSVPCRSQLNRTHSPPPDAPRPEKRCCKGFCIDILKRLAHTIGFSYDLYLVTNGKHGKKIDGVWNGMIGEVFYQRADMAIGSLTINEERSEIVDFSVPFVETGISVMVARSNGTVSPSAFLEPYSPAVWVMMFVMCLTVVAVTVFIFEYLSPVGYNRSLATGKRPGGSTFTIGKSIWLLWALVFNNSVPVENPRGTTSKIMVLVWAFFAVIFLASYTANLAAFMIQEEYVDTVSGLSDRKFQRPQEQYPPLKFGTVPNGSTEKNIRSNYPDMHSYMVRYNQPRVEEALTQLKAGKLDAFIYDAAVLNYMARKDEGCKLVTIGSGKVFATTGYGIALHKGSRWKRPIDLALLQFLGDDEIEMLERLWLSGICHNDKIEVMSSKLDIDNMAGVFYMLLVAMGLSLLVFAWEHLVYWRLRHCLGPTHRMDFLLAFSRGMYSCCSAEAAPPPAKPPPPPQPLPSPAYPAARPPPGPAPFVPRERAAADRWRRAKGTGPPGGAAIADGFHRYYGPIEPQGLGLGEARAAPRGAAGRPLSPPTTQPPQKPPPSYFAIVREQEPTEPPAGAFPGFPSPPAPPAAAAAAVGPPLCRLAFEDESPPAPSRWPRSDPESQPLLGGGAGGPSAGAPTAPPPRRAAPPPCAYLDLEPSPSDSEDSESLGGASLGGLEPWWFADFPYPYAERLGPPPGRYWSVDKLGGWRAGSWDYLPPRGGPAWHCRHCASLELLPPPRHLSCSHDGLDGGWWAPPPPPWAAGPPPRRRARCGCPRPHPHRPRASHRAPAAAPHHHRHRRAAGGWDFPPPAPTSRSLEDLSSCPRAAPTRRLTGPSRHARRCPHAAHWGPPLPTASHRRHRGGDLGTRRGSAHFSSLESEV
The target of assay [18] is T8, 5-HT1A (Homo sapiens, UniProt P08908).
T8 construct: NIMH PDSP (assay provider)
Kind of assay: NIMH PDSP radioligand binding, 5-HT1A. To be noted: read-out: Radioligand binding in 10 μM compound (% control). The procedure:
as §1, §2, §3

Assay [19] has as its target M5 (Homo sapiens, UniProt P08912). Kind of assay: NIMH PDSP radioligand binding, M5. To be noted: read-out: Radioligand binding in 10 μM compound (% control). The procedure: as §1, §2, §3
Assay [20] concerns the target T9, 5-HT1B (Homo sapiens, UniProt P28222).
T9 construct: NIMH PDSP (assay provider)
Kind of assay: NIMH PDSP radioligand binding, 5-HT1B. Particulars: read-out: Radioligand binding in 10 μM compound (% control). The procedure: as §1, §2, §3

[21] abbreviates: maximal response, current without potentiator = 100%.

T2 sequence (P46098 24-478, species assumed): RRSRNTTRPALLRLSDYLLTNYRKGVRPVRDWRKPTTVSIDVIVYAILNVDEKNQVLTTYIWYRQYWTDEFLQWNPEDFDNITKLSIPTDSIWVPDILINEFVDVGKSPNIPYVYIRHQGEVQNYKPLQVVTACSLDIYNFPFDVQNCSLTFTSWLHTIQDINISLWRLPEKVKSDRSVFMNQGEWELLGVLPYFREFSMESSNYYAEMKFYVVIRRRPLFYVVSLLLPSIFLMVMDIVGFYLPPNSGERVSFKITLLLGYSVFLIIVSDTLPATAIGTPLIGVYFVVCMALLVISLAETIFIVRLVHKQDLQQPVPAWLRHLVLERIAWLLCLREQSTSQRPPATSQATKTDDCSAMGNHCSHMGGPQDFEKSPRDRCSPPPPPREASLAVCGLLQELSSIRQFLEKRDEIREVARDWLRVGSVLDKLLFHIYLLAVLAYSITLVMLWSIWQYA
Chain of rat GluN1/GluN2D (Rattus norvegicus, UniProt P35439+Q62645) (Q62645 28-1323, other chains not shown): as the sequence (Q62645 28-1323, other chains not shown) above
Chain of μ-opioid receptor (P35372 whole entry, species assumed): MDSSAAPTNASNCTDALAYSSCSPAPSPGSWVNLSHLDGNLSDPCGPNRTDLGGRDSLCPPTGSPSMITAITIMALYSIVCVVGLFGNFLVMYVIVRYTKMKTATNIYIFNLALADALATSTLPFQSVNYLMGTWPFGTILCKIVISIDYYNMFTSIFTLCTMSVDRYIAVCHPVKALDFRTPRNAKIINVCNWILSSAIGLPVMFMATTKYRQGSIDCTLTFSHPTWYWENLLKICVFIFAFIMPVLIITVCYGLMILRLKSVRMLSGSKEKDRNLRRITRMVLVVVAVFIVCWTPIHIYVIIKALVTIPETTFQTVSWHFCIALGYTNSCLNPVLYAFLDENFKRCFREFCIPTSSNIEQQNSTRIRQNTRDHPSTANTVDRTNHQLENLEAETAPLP
Chain of α2C (P18825 whole entry): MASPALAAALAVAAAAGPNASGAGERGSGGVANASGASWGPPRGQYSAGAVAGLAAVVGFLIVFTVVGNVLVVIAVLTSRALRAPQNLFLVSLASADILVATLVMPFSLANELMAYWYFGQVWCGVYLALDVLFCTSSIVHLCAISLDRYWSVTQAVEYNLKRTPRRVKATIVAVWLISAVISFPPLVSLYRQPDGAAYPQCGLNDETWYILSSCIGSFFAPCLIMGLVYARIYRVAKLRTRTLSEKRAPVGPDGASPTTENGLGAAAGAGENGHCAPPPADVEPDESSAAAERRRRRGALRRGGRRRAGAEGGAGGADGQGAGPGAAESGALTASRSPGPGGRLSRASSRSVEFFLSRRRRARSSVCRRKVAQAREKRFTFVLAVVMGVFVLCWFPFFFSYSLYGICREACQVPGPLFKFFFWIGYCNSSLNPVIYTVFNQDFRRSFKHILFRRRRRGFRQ

Consider `COc1ccc(OCC2c3cccn3CC(=O)N2Cc2cccc(C(F)(F)F)c2)cc1` (racemic) [1180-447, 1-((4-Methoxyphenoxy)methyl)-2-(3-(trifluoromethyl)benzyl)-1,2-dihydropyrrolo[1,2-a]pyrazin-3(4H)-one], for which the remaining activity at 10 µM in [1] came out at 101%; in [2], 68%; in assay [3], 90%; in assay [5], 99%; in assay [9] it was 115%; in assay [10], 70%. Besides, the remaining activity at 10 µM amounted to 94% in assay [12]; 85% in assay [14]; 32% in assay [15]; 101% in [18]; 108% in assay [19]; 109% in assay [20]. Also, the figures for the “% control response” value in [4], in assay [8] and in assay [11] were 81.7 ± 7.5 % control response, 52.7 ± 6.3 % control response and 96.8 ± 13.3 % control response, respectively. Besides, the values for the EC50 in assay [6] (read-out: GluN2C pEC50 [95% CI] (converted)) and in assay [16] (read-out: GluN2D pEC50 [95% CI] (converted)) were 1.26 µM and 1.58 µM, respectively. Besides, the “GluN2C (max) (%)” value in assay [7] is listed as “(298) %”. Besides, the “Radioligand binding in 10 μM compound (% control)” value in [13] is 118 % control. Besides, in assay [15] (read-out: pKi values from non-linear regression of radioligand competition binding isotherms (converted)), the Ki is over 10 µM. In assay [17], the “GluN2D (max) (%)” value is “(396) %”.

Regarding `COc1ccc(OCC2c3cccn3CCN2C(=O)c2cccc(Cl)c2)cc1` (centres unmarked) [1180-420, (3-Chlorophenyl)(1-((4-methoxyphenoxy)methyl)-3,4-dihydropyrrolo[1,2-a]pyrazin-2(1H)-yl)methanone], the remaining activity at 10 µM stood at 87% in [1]; 116% in [2]; 110% in assay [3]; 104% in assay [5]; 112% in assay [9]; 75% in assay [10]. The remaining activity at 10 µM in assay [12] was determined as 93%; in assay [14], 83%; in assay [15] it was 113%; in assay [18], 110%; in [19] it was 101%; in assay [20] it was 95%. Also, the “% control response” value in assay [4] is on record as 81.4 ± 8.5 % control response; in assay [8], 56.4 ± 5.3 % control response; in assay [11], 98.9 ± 13.7 % control response. The EC50 in [6] (read-out: GluN2C EC50) amounted to 1.9 µM; in assay [16] (read-out: GluN2D EC50), 2.3 µM. Moreover, in [7] (setting [21]), the “GluN2C Max %” value is listed as 312%. Also, the “Radioligand binding in 10 μM compound (% control)” value in assay [13] stood at 110 % control. The “GluN2D Max %” value in [17] (setting [21]) stood at 374%.
